Assay results taken from ChEMBL document CHEMBL4411268, “Phytosterol and γ-Oryzanol Conjugates: Synthesis and Evaluation of their Antioxidant, Antiproliferative, and Anticholesterol Activities” (2018).

How the values were obtained:
[1] = Metal chelating activity assessed as compound-Fe2+ complex formation by measuring chelated ferrous ion at 0.18 umol/ml preincubated with Mohr's salt followed by ferozine addition and measured after 10 mins
[2] = Antioxidant activity against linoleic acid assessed as inhibition of beta-carotene bleaching at 0.18 umol/ml measured at 15 mins interval for 1 hr; assay type: functional
Daoy = assay: Antiproliferative activity against human DaOY cells assessed as growth inhibition after 72 hrs by MTT assay; assay type: functional
[3] = Antioxidant activity assessed as DPPH radical scavenging activity at 0.18 umol/ml incubated for 30 mins under dark condition relative to control; assay type: functional
MDA-MB-231 = assay: Antiproliferative activity against human MDA-MB-231 cells assessed as growth inhibition after 72 hrs by MTT assay; assay type: functional; details: MDA-MB-231, 72 h
HeLa = assay: Antiproliferative activity against human HeLa cells assessed as growth inhibition after 72 hrs by MTT assay; assay type: functional

O=c1c(O)c(-c2ccc(O)c(O)c2)oc2cc(O)cc(O)c12
Activity [1]: 22%

C=C(CC[C@@H](C)[C@H]1CC[C@@]2(C)[C@@H]3CC[C@H]4C(C)(C)[C@@H](OC(=O)[C@H](CSSC[C@H](NC(=O)OC(C)(C)C)C(=O)O[C@H]5CC[C@]67C[C@@]68CC[C@]6(C)[C@@H]([C@H](C)CCC(=C)C(C)C)CC[C@@]6(C)[C@@H]8CC[C@H]7C5(C)C)NC(=O)OC(C)(C)C)CC[C@@]45C[C@]35CC[C@]12C)C(C)C
Activity [1]: 0% | inhibition [2]: 5% | GI50 (Daoy): > 10000 nM | inhibition [3]: 0% | GI50 (MDA-MB-231): > 10000 nM | GI50 (HeLa): > 10000 nM

COc1cccc2c1C(=O)c1c(O)c3c(c(O)c1C2=O)C[C@@](O)(C(=O)CO)C[C@@H]3O[C@H]1C[C@H](N)[C@H](O)[C@H](C)O1 [DOXORUBICIN]
GI50 (Daoy): 16 nM | GI50 (MDA-MB-231): 46 nM | GI50 (HeLa): 93 nM
